Laboratory results published in patent publication US12410153B2, “Compounds, compositions and methods” (Avalo Therapeutics, Inc., priority 2014, dated 2025).
Read-outs that look alike come from different tables or passages of the source.

Assay: Repeated once-daily oral dosing with food (Days 1-7) in healthy subjects, PK and PD
Type: in vivo, human
Details: for mean plasma concentrations higher vs young age subgroup: Day 7, 2 to 24 hours postdose; for AUC(0-t) / Cmax / Vd/F / Tmax / AUC(0-inf) / half-life: plasma, oral; for Cmax: read-out: Cmax, Mean (SD); for AUC(0-inf): read-out: AUCinf, Mean (SD); for half-life: read-out: t1/2, Mean (SD) (converted)
Method: A randomized, double-blind, placebo-controlled, parallel-dose group in-patient study is conducted to investigate the pharmacodynamic (PD) effects of crystalline Form II of Compound (I) in healthy subjects.
The study is designed as a three-part, sequential study. The sequential nature of the study ensures that a range of doses are investigated first in a young, healthy population (Part 1) before proceeding to higher doses in the healthy population and the comparator populations (intermediate age and elderly) (Parts 2 and 3). For the purposes of this study, “young” refers to a subject who is 18 to 45 years of age, “intermediate age” refers to a subject who is 46 to 64 years of age, and “elderly” refers to a subject who is 65 years of age or older.
After a screening period of up to 21 days (Days −23 to −3), 16 healthy, young male and female subjects are randomly assigned to a dose group as shown in Table 9.
Each parallel dose group is balanced for gender (approximately equal number of males and females). The randomized subjects are domiciled from Day −1 through Day 8. On Day −1, the subjects receive placebo tablets in the fed state and undergo ambulatory blood pressure monitoring (ABPM) and safety assessments to establish time-matched baselines. On Days 1-7, the subjects receive the study drug in the fed state and undergo safety, pharmacokinetic (PK) and pharmacodynamics (PD) assessments. On Days 8-11, follow-up PK and safety assessments are performed.
Safety assessments include Clinician-Administered Dissociative States Scale (CADSS), Columbia-Suicide Severity Rating Scale (C-SSRS), concomitant medication, adverse event (AE) and vital sign assessments. In PK assessments, blood samples are taken and analyzed to determine PK parameters such as Cmax, Tmax, AUC0-24, and t1/2. PD assessments include ABPM, plasma brain-derived neurotrophic factor (BDNF) measurements, and Profile of Mood States (POMS) assessments.
After a screening period of up to 21 days (Days −23 to −3), 16 subjects (8 healthy, young male and female subjects, and 8 healthy, intermediate age male and female subjects) are randomly assigned to a dose group as shown in Table 10.
After a screening period of up to 21 days (Days −23 to −3), 16 subjects (8 healthy, young male and female subjects, and 8 healthy, elderly male and female subjects) are randomly assigned to a dose group as shown in Table 11.

[1] = female, human, females, all doses pooled, Day 7
[2] = females, all doses pooled, Day 1
[3] = females, all doses pooled, Day 7
[4] = male, human, males, all doses pooled, Day 7

Structure (SMILES): Cc1ccc(COC(=O)N2CC[C@H](CNc3ncccn3)[C@H](F)C2)cc1 [Form II, 4-methylbenzyl (3S, 4R)-3-fluoro-4-[(pyrimidin-2-ylamino)methyl] piperidine-1-carboxylate]
- Dose-Normalized Cmax, Mean (SD) (elderly, 12 mg, Day 1): 29.11 (3.96) ng/mL/mg
- AUC% extrap, Mean (SD) (elderly, 12 mg, Day 7): 9.70 (5.93) %
- CL/F, Mean (SD) (elderly, 12 mg, Day 7): 2.79 (0.72) L/h
- Dose-Normalized AUCinf, Mean (SD) (elderly, 12 mg, Day 7): 858.67 (325.40) h * ng/mL/mg
- Dose-Normalized Cmax, Mean (SD) (elderly, 12 mg, Day 7): 29.11 (3.96) ng/mL/mg
- apparent oral clearance lower vs young age group (elderly, Day 7): approximately 30%
- t½ higher vs young age group (elderly, Day 7): ~38%
- mean plasma concentrations higher vs young age subgroup (elderly): ~40%
- AUC(0-t) (female, human, females, all doses pooled, Day 1, read-out: AUC0-24, Mean (SD)): 2340 ng·h/mL
- AUC(0-t) (female, human, females, all doses pooled, Day 1, read-out: AUClast, Mean (SD)): 2310 ng·h/mL
- Cmax (female, human, females, all doses pooled, Day 1): 270 ng/mL
- Vd/F (female, human, females, all doses pooled, Day 1, read-out: Vz/F, Mean (SD)): 182 L
- Tmax (female, human, females, all doses pooled, Day 1, read-out: tmax, Mean (SD)): 2.26 h
- Tmax (female, human, females, all doses pooled, Day 1, read-out: tmax, Median): 2 h
- AUC(0-t) (female, human, females, all doses pooled, Day 7, read-out: AUC0-24, Mean (SD)): 4470 ng·h/mL
- AUC(0-inf) [1]: 9320 ng·h/mL
- AUC(0-t) (female, human, females, all doses pooled, Day 7, read-out: AUClast, Mean (SD)): 8580 ng·h/mL
- Cmax [1]: 373 ng/mL
- Vd/F (female, human, females, all doses pooled, Day 7, read-out: Vss/F, Mean (SD)): 105 L
- half-life [1]: 23.8 h
- Tmax (female, human, females, all doses pooled, Day 7, read-out: tmax, Mean (SD)): 2.31 h
- Tmax (female, human, females, all doses pooled, Day 7, read-out: tmax, Median): 2 h
- Day 7/Day 1 Cmax Ratio, Mean (SD) (females, all doses pooled): 1.38 (0.27)
- Observed Accumulation Index, Mean (SD) (females, all doses pooled): 1.88 (0.37)
- Steady State Accumulation Index, Mean (SD) (females, all doses pooled): 1.10 (0.15)
- CL/F, Mean (SD) [2]: 5.79 (0.84) L/h
- Dose-Normalized Cmax, Mean (SD) [2]: 20.59 (2.86) ng/mL/mg
- AUC% extrap, Mean (SD) [3]: 6.76 (4.26) %
- CL/F, Mean (SD) [3]: 3.19 (0.84) L/h
- Dose-Normalized AUCinf, Mean (SD) [3]: 698.59 (282.19) h * ng/mL/mg
- Dose-Normalized Cmax, Mean (SD) [3]: 27.98 (5.43) ng/mL/mg
- effects on average nighttime SBP and DBP (human, in vivo): smaller and less consistently observed
- Day 7/Day 1 Cmax Ratio, Mean (SD) (intermediate age, 12 mg): 1.41 (0.17)
- Observed Accumulation Index, Mean (SD) (intermediate age, 12 mg): 1.92 (0.25)
- Steady State Accumulation Index, Mean (SD) (intermediate age, 12 mg): 1.13 (0.16)
- CL/F, Mean (SD) (intermediate age, 12 mg, Day 1): 6.22 (1.34) L/h
- Dose-Normalized Cmax, Mean (SD) (intermediate age, 12 mg, Day 1): 21.42 (4.22) ng/mL/mg
- AUC% extrap, Mean (SD) (intermediate age, 12 mg, Day 7): 7.51 (1.85) %
- CL/F, Mean (SD) (intermediate age, 12 mg, Day 7): 3.27 (0.80) L/h
- Dose-Normalized AUCinf, Mean (SD) (intermediate age, 12 mg, Day 7): 675.34 (189.17) h * ng/mL/mg
- Dose-Normalized Cmax, Mean (SD) (intermediate age, 12 mg, Day 7): 30.03 (5.40) ng/mL/mg
- apparent oral clearance lower vs young age group (intermediate age, Day 7): approximately 18%
- t½ higher vs young age group (intermediate age, Day 7): approximately 27%
- mean plasma concentrations higher vs young age subgroup (intermediate age): approximately 20%
- AUC(0-t) (male, human, males, all doses pooled, Day 1, read-out: AUC0-24, Mean (SD)): 2210 ng·h/mL
- AUC(0-t) (male, human, males, all doses pooled, Day 1, read-out: AUClast, Mean (SD)): 2190 ng·h/mL
- Cmax (male, human, males, all doses pooled, Day 1): 262 ng/mL
- Vd/F (male, human, males, all doses pooled, Day 1, read-out: Vz/F, Mean (SD)): 147 L
- Tmax (male, human, males, all doses pooled, Day 1, read-out: tmax, Mean (SD)): 2.12 h
- Tmax (male, human, males, all doses pooled, Day 1, read-out: tmax, Median): 2 h
- AUC(0-t) (male, human, males, all doses pooled, Day 7, read-out: AUC0-24, Mean (SD)): 3750 ng·h/mL
- AUC(0-inf) [4]: 6770 ng·h/mL
- AUC(0-t) (male, human, males, all doses pooled, Day 7, read-out: AUClast, Mean (SD)): 6350 ng·h/mL
- Cmax [4]: 355 ng/mL
- Vd/F (male, human, males, all doses pooled, Day 7, read-out: Vss/F, Mean (SD)): 108 L
- half-life [4]: 20.6 h
- Tmax (male, human, males, all doses pooled, Day 7, read-out: tmax, Mean (SD)): 1.88 h
- Tmax (male, human, males, all doses pooled, Day 7, read-out: tmax, Median): 1.75 h
- Day 7/Day 1 Cmax Ratio, Mean (SD) (males, all doses pooled): 1.36 (0.22)
- Observed Accumulation Index, Mean (SD) (males, all doses pooled): 1.72 (0.28)
- Steady State Accumulation Index, Mean (SD) (males, all doses pooled): 1.15 (0.16)
- CL/F, Mean (SD) (males, all doses pooled, Day 1): 6.19 (1.15) L/h
- Dose-Normalized Cmax, Mean (SD) (males, all doses pooled, Day 1): 19.78 (3.09) ng/mL/mg
- AUC% extrap, Mean (SD) (males, all doses pooled, Day 7): 6.06 (5.38) %
- CL/F, Mean (SD) (males, all doses pooled, Day 7): 3.74 (0.83) L/h
- Dose-Normalized AUCinf, Mean (SD) (males, all doses pooled, Day 7): 512.15 (188.98) h * ng/mL/mg
- Dose-Normalized Cmax, Mean (SD) (males, all doses pooled, Day 7): 26.21 (3.94) ng/mL/mg
- steady-state predose plasma concentrations achieved by (repeated daily doses): ≤ 5 study day
- steady-state accumulation index, on average (seven days of daily dosing): 1.1
- Observed Accumulation Index, Mean (SD) (young subjects, 8 mg): 1.58 (0.19)
- CL/F, Mean (SD) (young subjects, 8 mg, Day 1): 5.36 (0.48) L/h
- Dose-Normalized Cmax, Mean (SD) (young subjects, 8 mg, Day 1): 22.42 (2.27) ng/mL/mg
- AUC% extrap, Mean (SD) (young subjects, 8 mg, Day 7): 8.61 (8.27) %
- CL/F, Mean (SD) (young subjects, 8 mg, Day 7): 3.37 (0.37) L/h
- Dose-Normalized AUCinf, Mean (SD) (young subjects, 8 mg, Day 7): 513.73 (174.76) h * ng/mL/mg
- Dose-Normalized Cmax, Mean (SD) (young subjects, 8 mg, Day 7): 28.00 (3.75) ng/mL/mg
- Day 7/Day 1 Cmax Ratio, Mean (SD) (young subjects, 12 mg): 1.15 (0.18)
- Observed Accumulation Index, Mean (SD) (young subjects, 12 mg): 1.65 (0.31)
- Steady State Accumulation Index, Mean (SD) (young subjects, 12 mg): 1.01 (0.08)
- CL/F, Mean (SD) (young subjects, 12 mg, Day 1): 6.46 (0.18) L/h
- Dose-Normalized Cmax, Mean (SD) (young subjects, 12 mg, Day 1): 19.92 (2.78) ng/mL/mg
- AUC% extrap, Mean (SD) (young subjects, 12 mg, Day 7): 4.77 (2.72) %
- CL/F, Mean (SD) (young subjects, 12 mg, Day 7): 4.00 (0.60) L/h
- Dose-Normalized AUCinf, Mean (SD) (young subjects, 12 mg, Day 7): 494.43 (177.79) h * ng/mL/mg
- Dose-Normalized Cmax, Mean (SD) (young subjects, 12 mg, Day 7): 22.79 (3.67) ng/mL/mg
- Observed Accumulation Index, Mean (SD) (young subjects, 16 mg): 1.70 (0.54)
- CL/F, Mean (SD) (young subjects, 16 mg, Day 1): 6.12 (0.90) L/h
- Dose-Normalized Cmax, Mean (SD) (young subjects, 16 mg, Day 1): 19.11 (1.97) ng/mL/mg
- AUC% extrap, Mean (SD) (young subjects, 16 mg, Day 7): 5.38 (5.13) %
- CL/F, Mean (SD) (young subjects, 16 mg, Day 7): 4.01 (1.21) L/h
- Dose-Normalized AUCinf, Mean (SD) (young subjects, 16 mg, Day 7): 501.47 (311.57) h * ng/mL/mg
- Dose-Normalized Cmax, Mean (SD) (young subjects, 16 mg, Day 7): 25.80 (4.07) ng/mL/mg
- Observed Accumulation Index, Mean (SD) (young subjects, 20 mg): 1.71 (0.22)
- CL/F, Mean (SD) (young subjects, 20 mg, Day 1): 5.90 (1.31) L/h
- Dose-Normalized Cmax, Mean (SD) (young subjects, 20 mg, Day 1): 19.18 (2.87) ng/mL/mg
- AUC% extrap, Mean (SD) (young subjects, 20 mg, Day 7): 2.88 (1.30) %
- CL/F, Mean (SD) (young subjects, 20 mg, Day 7): 3.51 (0.97) L/h
- Dose-Normalized AUCinf, Mean (SD) (young subjects, 20 mg, Day 7): 523.40 (175.33) h * ng/mL/mg
- Dose-Normalized Cmax, Mean (SD) (young subjects, 20 mg, Day 7): 26.72 (4.88) ng/mL/mg
